Laboratory results as given in patent publication US4536335A, “Carbapenem antibiotics” (Bristol-Myers Company, priority 1983, dated 1985).
Converted amounts (≈) assume the structure as drawn. Like-named read-outs stand apart in the source and are kept apart here.

Columns and labels:
K. pneumoniae A20468 = test: In vitro MIC, tube dilution; format: cell-based; settings: Klebsiella pneumoniae, A20468, tube dilution, Nutrient Broth, overnight incubation at 37° C.
K. pneumoniae A-9664 = test: In vitro MIC, tube dilution; format: cell-based; settings: Nutrient Broth, overnight incubation at 37° C.; for MIC: Klebsiella pneumoniae, A9664, tube dilution
S. aureus A-9606 = test: Protective effect in the intramuscular treatment of infected mice (PD50); format: in vivo; settings: Staphylococcus aureus, A9606, im, read-out: PD50/treatment, S. aureus A-9606, mice infected i.p. (Ex. 2: 2 × 10^9 organisms; Ex. 4 and 5: ~9 × 10^7), treated i.m. 0 and 2 h postinfection
[1] = Blood levels in mice after intramuscular administration; format: in vivo; settings: mouse, intramuscular dose of 20 mg/kg
From the text: Compounds were solubilized in 0.1 M phosphate buffer pH 7. Values are fro
a single test; 4 mice used per compound.
*t1/2 refers to halflife in minutes
**AUC refers to the area under the blood concentrationtime curve
(§1) Also shown is the urinary recovery in the mice.
Compounds were solubilized in 0.1 M phosphate buffer, pH 7.
Values based on a single test; 4 mice per compound.
*T1/2 refers to halflife in minutes

P. aeruginosa A20481 = test: Protective effect in the intramuscular treatment of infected mice (PD50); format: in vivo; settings: Pseudomonas aeruginosa, A20481, im; mice infected i.p. (Ex. 2: 1 × 10^5 organisms), treated i.m. 0 and 2 h postinfection
P. aeruginosa A-9843a [2] = test: as above; format: in vivo; settings: Pseudomonas aeruginosa, A9843A, im
Procedure: The PD50 (dose in mg/kg required to give protection to 50% of the infected mice) is indicated.
Treatment Schedule: Mice were treated i.m. with drugs 0 and 2 hours post-infection; 5 mice per dose were used for each test
*For compound of Ex. 2, mice were infected i.p. with 2 × 10^9
compounds of Ex. 4 and 5, mice were infected i.p. with ~9 ×
were treated i.m. with drugs 0 and 2 h postinfection.

P. rettgeri A22424 = test: In vitro MIC, tube dilution; format: cell-based; settings: Providencia rettgeri, A22424, tube dilution, Nutrient Broth, overnight incubation at 37° C.
P. aeruginosa A-9843A [3] = test: In vitro MIC, tube dilution; format: cell-based; settings: Pseudomonas aeruginosa, A9843A, Nutrient Broth, overnight incubation at 37° C.
B. fragilis A22696 = test: In vitro MIC, tube dilution; format: cell-based; settings: Bacteroides fragilis, Nutrient Broth, overnight incubation at 37° C.
From the text: (§2) N-Formimidoyl thienamycin was included as a comparison compound.

B. fragilis A22053 = test: In vitro MIC, tube dilution; format: cell-based; settings: Bacteroides fragilis, Nutrient Broth, overnight incubation at 37° C.
From the text: as §2

E. cloacae A-9569 = test: In vitro MIC, tube dilution; format: cell-based; settings: Enterobacter cloacae, A9569, Nutrient Broth, overnight incubation at 37° C.
From the text: as §2

B. fragilis A22863 = test: In vitro MIC, tube dilution; format: cell-based; settings: Bacteroides fragilis, Nutrient Broth, overnight incubation at 37° C.
From the text: as §2

E. cloacae A-9656 = test: In vitro MIC, tube dilution; format: cell-based; settings: tube dilution, Nutrient Broth, overnight incubation at 37° C.
[4] = Urinary recovery after intramuscular administration to mice; format: in vivo; settings: mouse, urine, im, 20 mg/kg, mice, i.m. 20 mg/kg, 6-24 hours after administration; read-out: Percentage of Dose Recovered in urine, 6-24 hours
Procedure: Compounds were solubilized in 0.1 M phosphate buffer pH 7. Values are from a single test; 4 mice per compound.
as §1
***Recovery based on 0-6 hour collection

S. pyogenes A-9604 = test: In vitro MIC, tube dilution; format: cell-based; settings: Nutrient Broth, overnight incubation at 37° C.; for MIC: Streptococcus pyogenes, A9604, tube dilution
P. mirabilis A-9900 = test: In vitro MIC, tube dilution; format: cell-based; settings: Nutrient Broth, overnight incubation at 37° C.; for MIC: Proteus mirabilis, A9900, tube dilution
P. morganii A15153 = test: In vitro MIC, tube dilution; format: cell-based; settings: Morganella morganii, A15153, tube dilution, Nutrient Broth, overnight incubation at 37° C.; read-out: MIC P. morganii A15153
P. aeruginosa A21213 = test: In vitro MIC, tube dilution; format: cell-based; settings: Nutrient Broth, overnight incubation at 37° C.; for MIC: Pseudomonas aeruginosa, A21213, tube dilution
S. marcescens A20019 = test: In vitro MIC, tube dilution; format: cell-based; settings: tube dilution, Nutrient Broth, overnight incubation at 37° C.
S. faecalis A20688 = test: In vitro MIC, tube dilution; format: cell-based; settings: Nutrient Broth, overnight incubation at 37° C.; for MIC: Enterococcus faecalis, A20688, tube dilution
S. pneumoniae A-9585 = test: In vitro MIC, tube dilution; format: cell-based; settings: overnight incubation at 37° C.; for MIC: Streptococcus pneumoniae, A9585, Nutrient Broth
[5] = system: S. aureus A-9606 (Pen-res.); test: In vitro MIC, tube dilution; format: cell-based; settings: Nutrient Broth, overnight incubation at 37° C.; for MIC: Staphylococcus aureus
[6] = tube dilution, additional data table, listed as MK 0787

C[C@@H](O)[C@H]1C(=O)N2C(C(=O)O)=C(SCCN=CN)C[C@H]12 [N-Formimidoyl Thienamycin, N-formimidoyl thienamycin, reference compound]
MIC (K. pneumoniae A20468): 0.06 µg/mL (≈ 0.2 µM)
MIC (K. pneumoniae A-9664): 0.13 µg/mL (≈ 0.434 µM)
MIC (K. pneumoniae A-9664; additional data table): 0.03 µg/mL (≈ 0.1 µM)
MIC K. pneumoniae A-9664 (K. pneumoniae A-9664; [6]): 0.06 µg/mL (≈ 0.2 µM)
ED50 (S. aureus A-9606): 0.07 mg/kg
Blood AUC [1]: 6 µg·h/mL
ED50 (P. aeruginosa A20481): 0.4 mg/kg
ED50 (P. aeruginosa A-9843a [2]; read-out: PD50/treatment, P. aeruginosa A9843A): 1 mg/kg
ED50 (P. aeruginosa A-9843a [2]; mice, i.m., *Historical data, read-out: PD50/Treatment, P. aeruginosa A-9843a (historical data)): 0.5 mg/kg
MIC (P. rettgeri A22424): 0.25 µg/mL (≈ 0.835 µM)
MIC (P. rettgeri A22424; additional data table): 0.13 µg/mL (≈ 0.434 µM)
MIC (P. aeruginosa A-9843A [3]): 1 µg/mL (≈ 3.34 µM)
MIC (P. aeruginosa A-9843A [3]; additional data table): 1 µg/mL (≈ 3.34 µM)
MIC (B. fragilis A22696): 0.13 µg/mL (≈ 0.434 µM)
MIC (B. fragilis A22053): 0.06 µg/mL (≈ 0.2 µM)
MIC (E. cloacae A-9569): 0.06 µg/mL (≈ 0.2 µM)
MIC (B. fragilis A22863): 1 µg/mL (≈ 3.34 µM)
MIC (E. cloacae A-9656; Enterobacter cloacae, A9656): 0.06 µg/mL (≈ 0.2 µM)
MIC E. cloacae A-9656 (E. cloacae A-9656; additional data table): 0.06 µg/mL (≈ 0.2 µM)
dose excreted at 24 h [4]: < 0.1%
MIC (S. pyogenes A-9604): 1 ng/mL (≈ 0.00334 µM)
MIC (S. pyogenes A-9604; additional data table): 2 ng/mL (≈ 0.00668 µM)
MIC S. pyogenes A-9604 (S. pyogenes A-9604; [6]): 1 ng/mL (≈ 0.00334 µM)
MIC (P. mirabilis A-9900): 0.06 µg/mL (≈ 0.2 µM)
MIC (P. mirabilis A-9900; additional data table): 0.03 µg/mL (≈ 0.1 µM)
MIC P. mirabilis A-9900 (P. mirabilis A-9900; [6]): 0.06 µg/mL (≈ 0.2 µM)
MIC (P. morganii A15153): 0.13 µg/mL (≈ 0.434 µM)
MIC (P. aeruginosa A21213): 0.25 µg/mL (≈ 0.835 µM)
MIC (P. aeruginosa A21213; additional data table): 0.13 µg/mL (≈ 0.434 µM)
MIC P. aeruginosa A21213 (P. aeruginosa A21213; [6]): 0.25 µg/mL (≈ 0.835 µM)
MIC (S. marcescens A20019; Serratia marcescens, A20019): 0.03 µg/mL (≈ 0.1 µM)
MIC S. marcescens A20019 (S. marcescens A20019; additional data table): 0.03 µg/mL (≈ 0.1 µM)
MIC (S. faecalis A20688): 0.5 µg/mL (≈ 1.67 µM)
MIC (S. faecalis A20688; additional data table): 0.25 µg/mL (≈ 0.835 µM)
MIC S. faecalis A20688 (S. faecalis A20688; [6]): 0.5 µg/mL (≈ 1.67 µM)
MIC S. pneumoniae A-9585 (S. pneumoniae A-9585; Nutrient Broth, additional data table, listed as MK 0787): 1 ng/mL (≈ 0.00334 µM)
MIC (S. pneumoniae A-9585): 4 ng/mL (≈ 0.0134 µM)
MIC (S. pneumoniae A-9585; additional data table): 2 ng/mL (≈ 0.00668 µM)
MIC S. aureus (Pen-res.) A-9606 ([5]; additional data table, listed as MK 0787): 4 ng/mL (≈ 0.0134 µM)
MIC ([5]; additional data table, read-out: MIC S. aureus (Pen-res.) A-9606): 8 ng/mL (≈ 0.0267 µM)
MIC ([5]; read-out: MIC S. aureus A-9606 (Pen-res.)): 8 ng/mL (≈ 0.0267 µM)
